Here are results for 19 compounds from patent US10844013B2, “Phenyl amino piperidine mTORC inhibitors and uses thereof” (Navitor Pharmaceuticals, Inc., priority 2016, dated 2020).

The structures appear in SMILES notation. pIC50: −log10 of the molar value. Bounds are passed on as bounds.

Type in all cases: cell-based
Experiment [1] has as its system pS6K1 (p-p70 S6 Kinase (Thr389)) in MCF-7 cells. Nature of the experiment: AlphaLISA Ultra pS6K1 assay. The settings on record: Homo sapiens, MCF7, 2 h, 2 hours compound incubation. Summed up:
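MCF-7 cells seeded 20–24 h, medium refreshed 2 h, then treated 2 h with compound (0.5% DMSO final). Lysates probed for Thr389-phosphorylated p70 S6K by AlphaLISA Ultra, 2 h acceptor then 2 h donor bead incubation, read on a multimode reader.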
(Bead proximity is the source of the signal in Alpha formats.)

The test system of experiment [2] is pAKT (p-Akt 1/2/3 (Ser473)) in MCF-7 cells. Nature of the experiment: AlphaLISA Ultra pAKT assay. The settings on record: Homo sapiens, MCF7, 2 hours compound incubation. The method, boiled down: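 MCF-7 cells seeded 20-24 h, medium refreshed for 2 h, then treated with compounds for 2 h at 0.5% final DMSO. Lysates frozen at −80 °C, then pAKT detected by AlphaLISA with acceptor and donor beads, 2 h each.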

In a further experiment the test system is MCF-7 cells. Nature of the experiment: Radioactive glucose uptake in MCF-7 cells. The note with it: Homo sapiens, MCF7, 3H-2DG uptake. The protocol: Example 157: Radioactive Glucose Uptake in MCF-7 Cells
Assay Protocol • 1. Seed approximately 12,000 MCF-7 cells cultured without insulin per well in 96-well plates (BIOCOAT, #356690) and let the cells sit in hood for 30 min. (Cell culture medium: DMEM+10% FBS). • 2. Put the cell culture plates in TC incubator (5% CO2, 37° C.) and incubate overnight. • 3. Take out the cell plates and wash with prewarmed KRH buffer (37° C.) three times using BioTek plate washer. (KRH buffer preparation: 136 mM NaCl, 4.7 mM KCl, 1.25 mM MgCl2, 1.2 mM CaCl2), 20 mM HEPES, 0.1 mg/ml sodium pyruvate, 0.1% BSA, pH 7.4). • 4. Compound preparation and treatment: • a) Add 12 ul compound stock in 100% DMSO to the first column of Echo LDV plate • b) Serially dilute the compound solution in 100% DMSO (4 uL+8 uL DMSO) using Bravo for 9 doses • c) Dispense 350 nL compounds using Echo to the working plate. • d) i) Without compound preincubation condition, dispense 116 uL KRH buffer containing tritiated 2-deoxy-D-glucose (3H-2DG) and 2-deoxy-D-glucose (2DG) to the working plate and mix. • ii. With compound preincubation condition, dispense 110 uL KRH buffer only to the working plates and mix • e) Keep the compound working plate at 37° C. incubator until use • 5. Discard the KRH buffer (cells were kept in KRH buffer for 10-15 min before 2-DG addition) and transfer 100 uL compound working solution out to the cell culture plate using Bravo. Incubate for 20 mins at 37° C. (2DG final at 0.2 mM, 3H-2DG at 10 uCi/mL). • 6. Add prewarmed 50 uL KRH buffer (37° C.) containing 60 mM cold 2DG to the wells to stop the 2DG uptake using Multidrop combi • 7. Wash the cells with prewarmed PBS three times using BioTek plate washer • 8. Add 50 uL lysis buffer (0.1 M NaOH) into the assay plate to lyse the cells using Bravo and shake at 800 rpm for 30 min. • 9. Mix and transfer 20 uL lysate to a new white plate (Corning, #3610) and add 200 uL MicroScint-20 using Bravo • 10. Shake the plate at 1000 rpm for 30 min and count in a MicroBeta plate reader.

Regarding `Cc1cc(C)c(C(=O)N2CCN(c3ccccn3)[C@H](C)C2)cc1NC1CCN(c2ccccc2C#N)CC1` [I-45, (R)-2-(4-(2,4-Dimethyl-5-(3-methyl-4-(pyridin-2-yl)piperazine-1-carbonyl)phenylamino)piperidin-1-yl) benzonitrile], the figures for the pIC50 (in experiment [1]; in experiment [2]; in the experiment with MCF-7 cells) were 6.00 to 8.00, below 5.00 and 6.00 to 8.00, respectively.

On to `Cc1cc(C)c(C(=O)N2CCN(c3ncccc3S(N)(=O)=O)CC2)cc1NC1CCN(c2ccccc2C#N)CC1` [I-60], for which the figures for the negative-log IC50 (pIC50) (in experiment [1]; in experiment [2]; in the experiment on MCF-7 cells) were 5.52 to 6.00, below 5.00 and 6.00 to 8.00, respectively.

For `Cc1cc(C)c(C(=O)N2CCN(c3cccc4c3NC(=O)C4)CC2)cc1NC1CCN(c2ccccc2C#N)CC1` [I-61, 2-(4-(2,4-Dimethyl-5-(4-(2-oxoindolin-7-yl)piperazine-1-carbonyl)phenylamino)piperidin-1-yl)benzonitrile], the pIC50 (in general, the IC50 on a negative log10 scale, so that one unit is a factor of ten) was 6.00 to 8.00 in experiment [1], below 5.00 in experiment [2] and 6.00 to 8.00 in the experiment on MCF-7 cells.

For `Cc1cc(C)c(C(=O)N2CCN(c3cccc(F)c3)C(CO)C2)cc1NC1CCN(c2ccccc2C#N)CC1` (stereo not drawn) [I-75, 2-[4-({5-[4-(3-Fluorophenyl)-3-(hydroxymethyl)piperazine-1-carbonyl]-2,4-dimethylphenyl}amino)piperidin-1-yl]benzonitrile], the pIC50 in experiment [1] is 6.00 to 8.00; in experiment [2] it was below 5.00; in the experiment on MCF-7 cells, 6.00 to 8.00.

With `Cc1cc(C)c(C(=O)N2CCN(c3nnnn3C)[C@H](CO)C2)cc1NC1CCN(c2ccccc2C#N)CC1` [I-91, (S)-2-(4-(5-(3-(Hydroxymethyl)-4-(1-methyl-1H-tetrazol-5-yl)piperazine-1-carbonyl)-2,4-dimethylphenylamino)piperidin-1-yl) benzonitrile], the pIC50 is 5.00 to 5.30 in experiment [1], below 5.00 in experiment [2] and 5.52 to 6.00 in the experiment on MCF-7 cells.

Consider `Cc1cc(C)c(C(=O)N2CCN(c3cc(F)ccn3)[C@H](CO)C2)cc1NC1CCN(c2ccccc2C#N)CC1` [I-100, (S)-2-(4-(5-(4-(4-Fluoropyridin-2-yl)-3-(hydroxymethyl)piperazine-1-carbonyl)-2,4-dimethylphenylamino)piperidin-1-yl)benzonitrile], for which the pIC50 in experiment [1] is 6.00 to 8.00; in experiment [2], below 5.00; with MCF-7 cells, 6.00 to 8.00.

`Cc1cccc(N2CCN(C(=O)c3cc(NC4CCN(c5ccccc5C#N)CC4)c(C)cc3C)C[C@H]2CO)n1` [I-102, (S)-2-(4-(5-(3-(Hydroxymethyl)-4-(6-methylpyridin-2-yl)piperazine-1-carbonyl)-2,4-dimethylphenylamino)piperidin-1-yl)benzonitrile]: the pIC50 in experiment [1] is 6.00 to 8.00; in experiment [2], below 5.00; with MCF-7 cells, 6.00 to 8.00.

`Cc1cc(C)c(S(=O)(=O)N2CCN(c3ccccc3S(N)(=O)=O)CC2)nc1NC1CCN(c2ccccc2C#N)CC1` [I-111, 2-(4-(6-(1-(2-Cyanophenyl)piperidin-4-ylamino)-3,5-dimethylpyridin-2-ylsulfonyl)piperazin-1-yl)benzenesulfonamide]: the pIC50 was 6.00 to 8.00 in experiment [1], below 5.00 in experiment [2] and 6.00 to 8.00 in the experiment on MCF-7 cells.

`Cc1ccc(C(=O)N2CCN(c3cccnc3S(N)(=O)=O)CC2)c(C)c1NC1CCN(c2ccccc2C#N)CC1` [I-121, 3-(4-(3-(1-(2-cyanophenyl)piperidin-4-ylamino)-2,4-dimethylbenzoyl)piperazin-1-yl)pyridine-2-sulfonamide]: the pIC50 in experiment [1] is 6.00 to 8.00; in experiment [2], below 5.00; with MCF-7 cells, 6.00 to 8.00.

For `COc1ccccc1N1CCC(Nc2cc(C(=O)N3CCN(c4ccccc4S(N)(=O)=O)CC3)c(C)cc2C)CC1` [I-128, 2-(4-(5-(1-(2-Methoxyphenyl)piperidin-4-ylamino)-2,4-dimethylbenzoyl)piperazin-1-yl)benzenesulfonamide], the pIC50 in experiment [1] is 6.00 to 8.00; in experiment [2], below 5.00; in the experiment with MCF-7 cells, 6.00 to 8.00.

In the case of `Cc1cc(C)c(C(=O)N2CCN(c3ccccc3S(N)(=O)=O)CC2)cc1NC1CN(c2ccccc2C#N)C1` [I-130, 2-(4-(5-(1-(2-Cyanophenyl)azetidin-3-ylamino)-2,4-dimethylbenzoyl)piperazin-1-yl)benzenesulfonamide], the pIC50 in experiment [1] was 5.30 to 5.52; in experiment [2], below 5.00; in the experiment on MCF-7 cells, 5.30 to 5.52.

As for `Cc1cc(C)c(C(=O)N2CCN(c3ccccn3)C(=O)C2)c(C)c1NC1CCN(c2ccccc2C#N)CC1` [I-138, 2-[4-({2,4,6-trimethyl-3-[3-oxo-4-(pyridin-2-yl)piperazine-1-carbonyl]phenyl}amino)piperidin-1-yl] benzonitrile], the pIC50 in experiment [1] is 6.00 to 8.00; in experiment [2] it was below 5.00; with MCF-7 cells, 6.00 to 8.00.

With `Cc1cc(C)c(C(=O)N2CCN(c3cccnn3)[C@H](CO)C2)c(C)c1NC1CCN(c2ccc(F)cc2C#N)CC1` [I-141, 5-Fluoro-2-[4-[3-[(3S)-3-(hydroxymethyl)-4-pyridazin-3-yl-piperazine-1-carbonyl]-2,4,6-trimethyl-anilino]-1-piperidyl]benzonitrile], the pIC50 was 6.00 to 8.00 in experiment [1], below 5.00 in experiment [2] and 6.00 to 8.00 in the experiment with MCF-7 cells.

Consider `Cc1cc(C)c(C(=O)N2CCN(c3ccccn3)[C@H](CO)C2)c(C)c1NC1CCN(c2cccnn2)CC1` [I-159, [(2S)-1-(pyridin-2-yl)-4-(2,4,6-trimethyl-3-{[1-(pyridazin-3-yl)piperidin-4-yl]amino}benzoyl)piperazin-2-yl]MeOH], for which the pIC50 in experiment [1] was 6.00 to 8.00; in experiment [2] it was below 5.00; with MCF-7 cells it was 6.00 to 8.00.

Turning to `Cc1cc(C)c(C(=O)N2CCN(c3ccccc3)[C@H](CO)C2)c(C)c1NC1CCN(c2ccncn2)CC1` [I-166, [(3S)-3-(Hydroxymethyl)-4-phenyl-piperazin-1-yl]-[2,4,6-trimethyl-3-[(1-pyrimidin-4-yl-4-piperidyl)amino]phenyl]methanone], the pIC50 in experiment [1] is 5.52 to 6.00; in experiment [2], below 5.00; with MCF-7 cells, below 5.00.

Consider `Cc1cc(C)c(C(=O)N2CCN(c3ccccc3S(N)(=O)=O)CC2)cc1N[C@@H]1CCN(c2ccccc2C#N)C[C@@H]1C` [I-171, 2-(4-(5-(((3S,4R)-1-(2-cyanophenyl)-3-methylpiperidin-4-yl)amino)-2,4-dimethylbenzoyl)piperazin-1-yl)benzenesulfonamide], for which the pIC50 in experiment [1] was 6.00 to 8.00; in experiment [2] it was below 5.00; in the experiment with MCF-7 cells it was 6.00 to 8.00.

As for `Cc1cc(C)c(C(=O)N2CCN(c3cccc(F)c3S(N)(=O)=O)C[C@@H]2C)c(C)c1NC1CCN(c2ccc(F)cc2C#N)CC1` [I-182, (S)-2-(4-(3-((1-(2-cyano-4-fluorophenyl)piperidin-4-yl)amino)-2,4,6-trimethylbenzoyl)-3-methylpiperazin-1-yl)-6-fluorobenzenesulfonamide], the pIC50 in experiment [1] was 6.00 to 8.00; in experiment [2], below 5.00; in the experiment with MCF-7 cells it was 6.00 to 8.00.

In the case of `Cc1cc(C)c(C(=O)N2CCN(c3cccc(F)c3[S@@](C)(=N)=O)C[C@@H]2C)c(C)c1NC1CCN(c2ccc(F)cc2C#N)CC1` [I-191, 5-fluoro-2-(4-(3-((2S)-4-(3-fluoro-2-(S-methylsulfonimidoyl)phenyl)-2-methylpiperazine-1-carbonyl)-2,4,6-trimethylphenylamino)piperidin-1-yl)benzonitrile], the pIC50 is 6.00 to 8.00 in experiment [1], below 5.00 in experiment [2] and 6.00 to 8.00 in the experiment with MCF-7 cells.

With `Cc1cc(C)c(C(=O)N2CCN(c3cccnn3)[C@H](CN)C2)c(C)c1NC1CCN(c2ccccc2C#N)CC1` [I-194, (R)-2-(4-(3-(3-(aminomethyl)-4-(pyridazin-3-yl)piperazine-1-carbonyl)-2,4,6-trimethylphenylamino)piperidin-1-yl)benzonitrile], the pIC50 in experiment [1] is 6.00 to 8.00; in experiment [2] it was below 5.00; in the experiment on MCF-7 cells, 6.00 to 8.00.
